The conditions of the data set: rabbit, in vivo, sc.

Read-outs that look alike come from different tables or passages of the source.

Protocol: For the rabbit model, 2.5-3 kg New Zealand male rabbits were used with 3 rabbits per group. Rabbits were allowed to adapt for 7 days and free access to water and food. Ketamine (40 mg/kg) and Xylazine (5 mg/kg) were used to anesthetize the rabbits. To withdraw blood samples, a 24-gauze Teflon catheter was inserted into the center auricular artery. The catheter was connected to a heparin cap filled with 0.9% saline solution.
Enoxaparin at doses of 3 and 6 mg/kg was given by subcutaneous injection at time 0. Blood samples were collected 0, 3, 5, 10, 15, 30 min, 1, 2, 3, 4, 6, 8, 12 hours after subcutaneous injection and processed as described above. The plasma was collected at indicated times and analyzed for anti-Xa assay as described. Enoxaparin for subcutaneous injection was formulated as a solution in PBS or water at 100 mg/ml concentration and appropriate doses were injected.
An anti-Xa assay was used to monitor plasma LMWH levels. The anti-Xa assay was performed using a modification of the amidolytic method of Teien and Lie (Thrombosis res. 10: 399-410, 1977) with the Coatest heparin test kit by using S-2222 as the chromogenic substrate (Diapharma Group, Inc. OH). […] The concentration of enoxaparin in unknown samples was calculated by comparing readings to the calibration curve which was linear in the range of 0.1-0.7 IU/ml.
Experimental data, expressed in anti-Xa IU/mL, was utilized for non-linear regression curves based on a one-compartment model (Comelli and Fareed, Semin thromb Hemost, 25: 57-61, 1999) by using SigmaPlot program with the method of extended least squares. From the kinetic curves, the following parameters were calculated: the area under curve (AUC expressed in IU*hr*ml^−1), absorption half-life (t1/2 expressed in hr); and half-life of apparent elimination (t1/2e expressed in hr). The AUC (0-t) was calculated using the trapezoidal rule (Rowland and Tozer, Clinical Pharmacokinetics. Concepts and Applications. 459-461, Lea and Febiger, 1989) and extrapolated to infinity (AUC) by dividing the value of the last measured concentration by the elimination rate constant.

For dalteparin, the absorption half-life lay within 1 to 2 h. For the setting “3 mg/kg”, the “AUC (IU*hr/mL)” value is reported as 6.93 IU*hr/mL, the Ka is listed as 0.40, the Ke was determined as 0.33 h⁻¹ and the MRT (AUMC/AUC) came to 4.97 h. Also, under “6 mg/kg”, the “AUC (IU*hr/mL)” value turned out to be 13.27 IU*hr/mL, the Ka amounted to 0.32, the Ke came out at 0.27 h⁻¹ and the MRT (AUMC/AUC) was determined as 5.93 h.

Regarding enoxaparin, the absorption half-life is 1 to 2 h. Also, where the note is “3 mg/kg”, the “AUC (IU*hr/mL)” value is recorded as 6.27 IU * hr/mL, the Ka is recorded as 0.40, the Ke stood at 0.35 h⁻¹ and the MRT (AUMC/AUC) stood at 4.75 h. Also, for the setting “6 mg/kg”, the “AUC (IU*hr/mL)” value is on record as 13.45 IU * hr/mL, the Ka was found to be 0.35, the Ke was found to be 0.3 h⁻¹ and the MRT (AUMC/AUC) is 5.48 h.

Source of the values: patent publication US20040087543A1, “Methods and products for mucosal delivery” (priority 2002, published 2004).
